The values below come from patent US20240123013A1, “SUPPLEMENT FOR ARTHRITIS AND PSORIASIS” (priority 2021, published 2024).

This assay in a line: Comparison of arthritis gel compositions formulated with different crystalline CBDs (Example 12). Conditions: gels differ only in the crystalline CBD used. The procedure:
Two hydroalcoholic arthritis gel compositions are prepared according to Example 2, the only difference being that the crystalline CBD used in the formulation is either of type A (needle-like crystals; FIG. 1) or type B (bunch/cluster-like; FIG. 2).

With `C=C(C)[C@@H]1CCC(C)=C[C@H]1c1c(O)cc(CCCCC)cc1O` [type A CBD, cannabidiol], the “Activity of CBD in hydroalcoholic arthritis gel, crystal type A versus type B” value is reported as “significantly more active than type B CBD”. Moreover, the “Activity of CBD in hydroalcoholic arthritis gel, crystal type A versus type B” value (listed as crystal structure A) is recorded as “significantly more potent”.
